From publication PMC3158247 (Journal of medicinal chemistry, 2011)

How the values were obtained:
[1] = test system: HBV-transgenic mice (strain 1.3.32); assay type: in vivo; conditions: oral gavage once daily for 14 days
[2] = test system: HepG2.2.15 cell line; conditions: MTT assay
[3] = test system: CL57BL/6 mice

Structure (SMILES)	alanine transaminase (ALT) and bilirubin [1]	other serum chemistry changes [1]	total sodium [1]	deaths as a result of compound exposure ([1]; 25 and 7.9 mg/kg)	weight loss, morphological or behavioral changes ([1]; 25 and 7.9 mg/kg)	No cytotoxicity observed up to the highest concentration tested [2] [µM]	tolerability ([3]; CL57BL/6 (normal) mice)	platelets, neutrophils, lymphocytes (trend) ([3]; single intravenous bolus 25 mg/kg, 24 hours)	serum chemistry ([3]; single intravenous bolus, […] 1a and 7.9 mg/kg 3c respectively, 24 hours)
Fc1cccc(Cl)c1C1CC(c2ccc(Cl)cc2)Nc2ncnn21 (racemic) [Compound 1a, 7-(2-Chloro-6-fluorophenyl)-5-(4-chlorophenyl)-4,5,6,7-tetrahydro-[1,2,4]triazolo[1,5-a]pyrimidine]	elevated levels of alanine transaminase (ALT) and bilirubin in a minority of treated animals	did not result in any other obvious and significant dose-dependent serum chemistry changes	slight rise in total sodium	No animals were observed to have died as a result of compound exposure	No weight loss, morphological or behavioral changes were noted	> 50	well-tolerated	trend towards reduction of platelets and neutrophils, and also an increase in lymphocytes	unaffected
Fc1cccc(F)c1C1C=C(c2ccc(Cl)cc2)Nc2ncnn21 (centres unmarked) [Compound 3c, 5-(4-Chlorophenyl)-7-(2,6-difluorophenyl)-4,7-dihydro-[1,2,4]triazolo[1,5-a]pyrimidine]				No animals were observed to have died as a result of compound exposure					
Fc1cccc(Cl)c1C1CC(c2ccc(Cl)cc2)Nc2ncnn21 (single isomer, unassigned) [enantiomer 1 of 1a]						> 50			
